# Assay results taken from US20220184222A1, “BICYCLE TOXIN CONJUGATES AND USES THEREOF” (BicycleTx Limited, priority 2019, published 2022).
# Starred links: 1 amine or outer side, 2 acyl side, 3 side chain; linkers in the order of their positions; H or OH if unused. Non-standard residues stand in square brackets, D forms with d. Residues, ends and D or L forms follow the SMILES beside them. *: point of attachment. Dolaproine = CO[C@@H]([C@@H]1CCCN1)[C@@H](C)C(=O)O; Dil = CC[C@H](C)[C@H](NC)[C@@H](CC(=O)O)OC; PABC = O=C(OCc1ccc(N[*:1])cc1)[*:2]; X1 = O=C(CCCC(=O)*)ON1C(=O)CCC1=O; X2 = C[C@@H](N*)[C@@H](O)c1ccccc1; Cit = NC(=O)NCCC[C@H](N)C(=O)O; NMeV = CN[C@H](C(=O)O)C(C)C
# Columns and labels:
# Panc033 = experiment: PDAC PDX Panc033 xenograft efficacy (Example 5); format: in vivo, NSG mice; details: 3 mg/kg intravenously weekly, 4-week treatment period
# Experimental: BT5528 and Vehicle were prepared as described in the examples above, and tested in treatment of Pancreatic Ductal Adenocarcinoma (PDAC) in PDX models. PDX models effectively capture patient responses to oncology therapy in a heterogeneous cohort of patients with solid tumors with 80-100% correlation between the PDX and patient response (Izumchenko et al. 2017)
# Pancreatic ductal adenocarcinoma patient derived xenograft tumors (PDAC PDX; Panc033 and Panc163) were implanted subcutaneously from source tumors into the flank of NSG mice. Tumor bearing animals were randomized to receive intravenously a weekly dosing of vehicle or 3 mg/kg BT5528. Tumor sizes were monitored by caliper measurements.
# CTG-0192 = experiment: Champions TumorGraft NSCLC PDX efficacy, model CTG-0192; format: in vivo, Mus musculus
# Experimental: Mice were implanted subcutaneously into the left flank with tumor fragments from one of the various models. […] Effects on tumor growth were evaluated by measuring percent tumor growth inhibition (% TGI), and the number of complete responders (CR), partial responders (PR), and tumor-free survivors (TFS). Tolerability was assessed by body weight loss, lethality, and clinical signs of adverse treatment-related side effects. Tumor volumes and body weights were measured twice a week.
# (§1) Dosing solutions of BT5528 […] were pre-formulated. These dosing solutions were stored at −80° C. in the dark. On each day of dosing, a frozen aliquot of each test agent was thawed, stored at 2-8° C. and used for dosing.
# (§2) The animals used in this study are described below: • Species: Mus musculus • Strain: Athymic Nude-Foxn1^nu (immune-compromised) • Source: Envigo (Indianapolis, Ind., USA) • Number of animals per group: 2 • Age and sex: At least 6-8 weeks of age at start of dosing, female • Weight: At least 18 grams at start of dosing • Acclimation period: 3 days
# (§3) Stock mice were implanted with tumor cells from Champions TumorGraft® models CTG-0160, CTG-0170, CTG-0178, CTG-0192, CTG-0363, CTG-0808, CTG-0838, CTG-0848, CTG-1212, CTG-1502, CTG-1535, CTG-2011, CTG-2393, CTG-2539 or CTG-2540. After the tumors reached 1000-1500 mm^3, they were harvested and the tumor fragments (approximately 5×5×5 mm^3) were implanted SC in the left flank of the female study mice. Each animal was implanted with a specific passage lot and documented. Tumor growth was monitored twice a week using digital calipers and the tumor volume (TV) was calculated using the formula (0.52×[length×width^2]). When the TV reached an average volume of 150-300 mm^3, animals were matched by tumor size and assigned into Vehicle Control and treatment groups (n=2/group) and dosing was initiated on Day 0. After the initiation of dosing on Day 0, animals were weighed twice per week using a digital scale and TV was measured twice per week and also on the final day of study. The study was completed when the mean tumor volume of Vehicle Control reached 1500 mm^3 or up to Day 60, whichever occurred first.
# (§4) Beginning on Day 0, animals were observed daily and weighed twice weekly using a digital scale; data including individual and mean gram weights, mean percent weight change versus Day 0 (% vD0) were recorded for each group and % vD0 plotted at study completion. […] Treatment resulting in a mean % vD0>20% and/or >10% mortality was considered above the maximum tolerated dose. Maximum mean % vD0 (weight nadir) for each treatment group was reported at study completion.
# (§5) Inhibition of tumor growth was determined by calculating the percent TGI (100%×[1−(final MTV−initial MTV of a treated group)/(final MTV−initial MTV of the control group)]). Treatment started on Day 0.
# (§6) Additional endpoints used to evaluate efficacy were: the number of complete responders (CR), partial responders (PR), and tumor-free survivors (TFS). PRs were considered exclusive of CRs, as were TFS.
# (§7) Statistical analyses of anti-tumor efficacy were performed using one-way ANOVA followed by Dunnett's multiple comparisons test (GraphPad Prism version 8.2.0). Significant p-values=<0.05.
# Animals were dosed according to the schedule on Table 7-1. The study was terminated on Day 34.
# CTG-0363 = experiment: Champions TumorGraft NSCLC PDX efficacy, model CTG-0363; format: in vivo, Mus musculus
# Experimental: (§8) Mice were implanted subcutaneously into the left flank with tumor fragments from one of the various models. After tumors grew to an average of 150-300 mm^3, mice were treated by IV administration Q7Dx4 (n=2) with vehicle or 3 mg/kg of BT5528. Effects on tumor growth were evaluated by measuring percent tumor growth inhibition (% TGI), and the number of complete responders (CR), partial responders (PR), and tumor-free survivors (TFS). Tolerability was assessed by body weight loss, lethality, and clinical signs of adverse treatment-related side effects. Tumor volumes and body weights were measured twice a week.
# as §1, §2, §3, §4, §5, §6, §7
# Animals were dosed according to the schedule on Table 7-1. The study was terminated on Day 28.
# CTG-0838 = experiment: Champions TumorGraft NSCLC PDX efficacy, model CTG-0838; format: in vivo, Mus musculus
# Experimental: as §8, §1, §2, §3, §4, §5, §6, §7
# Animals were dosed according to the schedule on Table 7-1. The study was terminated on Day 27.
# [1] = CTG-0192, 3 mg/kg IV Q7Dx5, Day 0-34
# [2] = CTG-0363, 3 mg/kg IV Q7Dx4, Day 0-28
# [3] = CTG-0838, 3 mg/kg IV Q7Dx4, Day 0-27
smiles,measurement,setting,value
CC[C@H](C)[C@@H]([C@@H](CC(=O)N1CCC[C@H]1[C@H](OC)[C@@H](C)C(=O)N[C@H](C)[C@@H](O)c1ccccc1)OC)N(C)C(=O)[C@@H](NC(=O)[C@H](C(C)C)N(C)C(=O)OCc1ccc(NC(=O)[C@H](CCCNC(N)=O)NC(=O)[C@@H](NC(=O)CCCC(=O)ON2C(=O)CCC2=O)C(C)C)cc1)C(C)C [BT5528] (X1-V[Cit][PABC][NMeV]V[Dil][Dolaproine]-X2),anti-tumor activity (tumor size by caliper),Panc033,significant anti-tumor activity from reduced tumor growth rate to decreasing tumor volumes
same,maximum mean body weight loss,"CTG-0192; 3 mg/kg IV Q7Dx5, Day 7",2.3%
same,MTV (mean tumor volume),"CTG-0192; 3 mg/kg IV Q7Dx5, Day 34",740±386 mm^3
same,TGI,"CTG-0192; 3 mg/kg IV Q7Dx5, Day 34",36%
same,# CR (complete responders),CTG-0192; [1],0/0/0
same,# PR (partial responders),CTG-0192; [1],0/0/0
same,# TFS (tumor-free survivors),CTG-0192; [1],0/0/0
same,% TGI,"CTG-0192; CTG-0192, 3 mg/kg IV Q7Dx5, Day 34",36%
same,Day 34 Tumor Volume Mean TV ± SEM,"CTG-0192; CTG-0192, BT5528 3 mg/kg IV Q7Dx5, Day 34, n=2",740 ± 386 mm^3
same,mean body weight loss,CTG-0363; 3 mg/kg IV Q7Dx4,no mean body weight loss
same,MTV (mean tumor volume),"CTG-0363; 3 mg/kg IV Q7Dx4, Day 28",1609±18 mm^3
same,TGI,"CTG-0363; 3 mg/kg IV Q7Dx4, Day 28",26%
same,# CR (complete responders),CTG-0363; [2],0/0/0
same,# PR (partial responders),CTG-0363; [2],0/0/0
same,# TFS (tumor-free survivors),CTG-0363; [2],0/0/0
same,% TGI,"CTG-0363; CTG-0363, 3 mg/kg IV Q7Dx4, Day 28",26%
same,Day 28 Tumor Volume Mean TV ± SEM,"CTG-0363; CTG-0363, BT5528 3 mg/kg IV Q7Dx4, Day 28, n=2",1609 ± 18 mm^3
same,mean body weight loss,CTG-0838; 3 mg/kg IV Q7Dx4,no mean body weight loss
same,MTV (mean tumor volume),"CTG-0838; 3 mg/kg IV Q7Dx4, Day 27",269±128 mm^3
same,TGI,"CTG-0838; 3 mg/kg IV Q7Dx4, Day 27",97%
same,# CR (complete responders),CTG-0838; [3],0/0/0
same,# PR (partial responders),CTG-0838; [3],0/0/0
same,# TFS (tumor-free survivors),CTG-0838; [3],0/0/0
same,% TGI,"CTG-0838; CTG-0838, 3 mg/kg IV Q7Dx4, Day 27",97%
same,Day 27 Tumor Volume Mean TV ± SEM,"CTG-0838; CTG-0838, BT5528 3 mg/kg IV Q7Dx4, Day 27, n=2",269 ± 128 mm^3
